# In PMC12582325 (Proceedings of the National Academy of Sciences of the …, 2025):
# Several values for one entry are separate records, joined by “and”; a condition that tells them apart may be missing. Equal entries are not always repeated. Where two headings read alike, the source gives them in different places. Where a SMILES comes first, the peptide text is derived from it.
# How the values were obtained:
# Hj.Hpr2 = type: cell-based, Hypocrea jecorina
# Hj Ste2 GPCR (Hj.Hpr2) = type: cell-based, Hypocrea jecorina
# Fo.Ste2 [1] = test: YeMaP Library-on-One: YPL1 pheromone library enrichment by mating, NGS; type: cell-based, Fusarium oxysporum; settings: YPL1 library cocultured with Fo.Ste2 strain GEN90, 20 h, 2 d diploid enrichment, NextSeq 500
# [2] = test system: F. oxysporum in tomato roots; test: Quantification of fungal DNA in tomato roots (qPCR); settings: 3 d after inoculation, washed roots; compared to the untreated infected roots; three biological replicates
# Fo.Ste2 [3] = type: cell-based, Fusarium oxysporum
# Bc.Ste2 [4] = type: cell-based, Botrytis cinerea
# Bc.Ste2 [5] = type: cell-based, Botrytis cinerea; remark: listed apart in the source
# [6] = test system: F. oxysporum on tomato roots; test: Tomato root inoculation and fluorescence microscopy of infected roots; type: in vivo, Fusarium oxysporum / Solanum lycopersicum; settings: exogenous addition of pheromone to microconidia; 3 d after inoculation; fluorescence microscopy
# Bb.Ste2 [7] = type: cell-based, Beauveria bassiana
# Bb.Ste2 [8] = type: cell-based, Beauveria bassiana; settings: YPL1 library cocultured with Bb.Ste2 strain GEN88, 20 h, 2 d diploid enrichment, NextSeq 500
# Ca.Ste2 = type: cell-based, Candida albicans
# Fo.Ste2 [9] = type: cell-based, Fusarium oxysporum; remark: listed apart in the source
# [10] = test system: F. oxysporum infection of tomato plants; test: Tomato plant mortality assay; type: in vivo, Fusarium oxysporum / Solanum lycopersicum; settings: groups of 10 plants; 3.2 × 10^6 microconidia/mL supplemented with pheromone once at inoculation; 50 d; Kaplan-Meier, log-rank
# Procedure: Tomato plant infection assays were performed as described ([61]) with F. oxysporum microconidia and treatment inoculation as described above. Plants were transferred to a growth and plant survival was recorded daily for 50 d. Plant death was diagnosed as a complete collapse of the stem, without any green parts left. The Kaplan–Meier test was used to assess statistical significance of differences in survival among groups using the log-rank test in GraphPad Prism. The infection experiment was conducted two times with 10 plants per condition.
# Fg.Ste2 = settings: for barcode qPCR of diploids, Fg.Ste2 x pheromone strain: consortium, individual replicates (n=3), listed as Fo.Pheromone
smiles,measurement,setting,value
C[C@@H](O)[C@H](NC(=O)[C@H](CS)NC(=O)[C@@H](N)Cc1c[nH]c2ccccc12)C(=O)N[C@@H](Cc1c[nH]c2ccccc12)C(=O)N[C@@H](CCCNC(=N)N)C(=O)NCC(=O)N[C@@H](CCC(N)=O)C(=O)N1CCC[C@H]1C(=O)N[C@@H](CS)C(=O)N[C@@H](Cc1c[nH]c2ccccc12)C(=O)O [Fo] (H-WCTWRGQPCW-OH; N-terminus assumed),"barcode qPCR of diploids, Hj.HPR2 x pheromone strain",Hj.Hpr2,0
same,diploid barcode qPCR signal relative to control (2^-dCt),Hj.Hpr2,0
same,Diploid frequency (%),Hj Ste2 GPCR (Hj.Hpr2),0.0%
same,"Enrichment after mating, reads per million minus library before coculture",Fo.Ste2 [1],"> 340,000 RPM"
same,"Fungal biomass in inoculated tomato roots (qPCR of Fol4287 actin gene, 2^−ΔΔCt, normalized to tomato gapdh)",[2],significant reduction in fungal biomass
same,"Sup.Fig.7A - Fo, group mean",Fo.Ste2 [3],0.3879 and 0.4515
same,average (diploid colonies),Fo.Ste2 [3],68 and 129.67 and 80.33
same,diploid frequency (%),Fo.Ste2 [3],19.26% and 31.27% and 21.99%
same,"diploid frequency (%), Plates, Fo",Fo.Ste2 [3],1.52% and 3.25% and 5.49%
same,"diploid frequency (%), Plates, Fo",Fo.Ste2 [3]; pH=6,1.9% and 1.65% and 1.4%
same,"diploid frequency (%), Plates, Fo",Fo.Ste2 [3]; pH=7,1.27% and 1.02% and 0.39%
same,"Sup.Fig.7A - Fo, group mean",Fo.Ste2 [3]; ph=6,0.422
same,"Sup.Fig.7A - Fo, group mean",Fo.Ste2 [3]; ph=7,0.4837
same,Fold change yEGFP,Bc.Ste2 [4],1
same,Hillslope,Bc.Ste2 [4],0.5934
same,logEC50,Bc.Ste2 [4],-8.991
same,"Sup.Fig.3A Bc.Ste2 biosensor response, group mean",Bc.Ste2 [4]; 10 μM,1.713
same,Diploid frequency (%),Bc.Ste2 [5],0.1% and 0.3%
same,average (diploid colonies),Bc.Ste2 [5],0.67 and 1
same,diploid frequency (%),Bc.Ste2 [5],0.19% and 0.28%
same,Adhesion of F. oxysporum germ tubes among themselves or to tomato roots,[6],increased adhesion
same,diploid barcode qPCR signal relative to control (2^-dCt),Bb.Ste2 [7],0
same,"Enrichment after mating, reads per million minus library before coculture",Bb.Ste2 [8],"> 340,000 RPM"
same,Diploid frequency (%),Ca.Ste2,0.0%
same,"barcode qPCR of diploids, Fo.Ste2 x pheromone strain",Fo.Ste2 [9],0.439
same,"Sup.Fig.7B - Fo, group mean",Fo.Ste2 [9]; pH=6,1.65
same,"Sup.Fig.7B - Fo, group mean",Fo.Ste2 [9]; pH=7,0.8933
same,"qPCR, Fo + Fo",Fo.Ste2 [9]; ph=6,0.386 and 0.413 and 0.467
same,"qPCR, Fo + Fo",Fo.Ste2 [9]; ph=7,0.660 and 0.439 and 0.352
same,Tomato plant survival,[10],no significant difference in plant survival
same,"barcode qPCR of diploids, Fg.Ste2 x pheromone strain",Fg.Ste2; SC-AS/Urea,0.002 and 0.005 and 0.018
same,"barcode qPCR of diploids, Fg.Ste2 x pheromone strain",Fg.Ste2; SC,0.005 (2×) and 0.013
same,diploid barcode qPCR signal relative to control (2^-dCt),"Fg.Ste2; section A4, (GPCR strain) Fg, mean of Bio1-3",0.118
same,diploid barcode qPCR signal relative to control (2^-dCt),"Fg.Ste2; section A4, column Fg, replicate Bio1",0.012
same,diploid barcode qPCR signal relative to control (2^-dCt),"Fg.Ste2; section A4, column Fg, replicate Bio2",0.1
same,diploid barcode qPCR signal relative to control (2^-dCt),"Fg.Ste2; section A4, column Fg, replicate Bio3",0.242
same,diploid barcode qPCR signal relative to control (2^-dCt),"Fg.Ste2; section Cm, (GPCR strain) Fg, mean of Bio1-3",0.038
same,diploid barcode qPCR signal relative to control (2^-dCt),"Fg.Ste2; section Cm, column Fg, replicate Bio1",0.014
same,diploid barcode qPCR signal relative to control (2^-dCt),"Fg.Ste2; section Cm, column Fg, replicate Bio2",0.066
same,diploid barcode qPCR signal relative to control (2^-dCt),"Fg.Ste2; section Cm, column Fg, replicate Bio3",0.033
same,diploid barcode qPCR signal relative to control (2^-dCt),"Fg.Ste2; section SC, (GPCR strain) Fg, mean of Bio1-3",0.0075
same,diploid barcode qPCR signal relative to control (2^-dCt),"Fg.Ste2; section SC, column Fg, replicate Bio1",0.005
same,diploid barcode qPCR signal relative to control (2^-dCt),"Fg.Ste2; section SC, column Fg, replicate Bio2",0.005
same,diploid barcode qPCR signal relative to control (2^-dCt),"Fg.Ste2; section SC, column Fg, replicate Bio3",0.013
same,diploid barcode qPCR signal relative to control (2^-dCt),"Fg.Ste2; section Scramble, (GPCR strain) Fg, mean of Bio1-3",0.0276
same,diploid barcode qPCR signal relative to control (2^-dCt),"Fg.Ste2; section Scramble, column Fg, replicate Bio1",0.025
same,diploid barcode qPCR signal relative to control (2^-dCt),"Fg.Ste2; section Scramble, column Fg, replicate Bio2",0.022
same,diploid barcode qPCR signal relative to control (2^-dCt),"Fg.Ste2; section Scramble, column Fg, replicate Bio3",0.036
